Measurements taken from US6166084A, “Compositions for the treatment of chronic wounds” (Johnson & Johnson Medical, Ltd., priority 1996, dated 2000).

How the values were obtained:
[1] = tested on: matrix metalloproteinases (MMP) from human wound fluid; assay: MMP activity by gelatin SDS-PAGE zymography; type: biochemical; details: 18 hours at 37° C., pH 7.8
Description: The effect of NAC concentration on the activity of matrix metalloproteinases (MMP) from human wound fluid was assessed as follows.
The MMP activity was determined by gelatin SDS polyacrylamide gel electrophoresis (zymography) similar to that described by Heussen C. and Dowdle E. B. in Anal. Biochem. 102:196-202 (1980).
The experimental method was as follows:
1. Gel preparation. The following components were mixed thoroughly:
1. 5 ml 30% acrylamide/bis acrylamide (30 g acrylamide (Sigma A8887) plus 0.8 g N-N'-methylene bis-acrylamide (Sigma M7279) in 100 ml deionised water).
2. 6.05 ml deionised water.
3. 3.75 ml 1.5M Tris-HCl buffer.
4. 150 μl 10% sodium dodecyl sulphate (SDS. Fisons S/5200/53).
5. 1 ml warm (60° C.) gelatin (Sigma G9382) solution (7.5 mgml^-1).
6. Immediately prior to casting the gel 50 μl 10% ammonium persulphate (APS, Fisons A/6160/53) and 12.5 μl tetramethylethylenediamine (TEMED, Sigma T9281).
4.5 ml of the above mixture was added to the electrophoresis apparatus (Dual Mini Slab Kit, Atto Corporation), and covered with propanol saturated water. The gel was left gel to polymerise for at least 45 minutes. Then propanol solution was decanted and added to 1 ml of stacking gel solution (3.15 ml deionised water, 0.75 ml 30% acrylamide/bis-acrylamide, […] 1.5M Tris-HCl, 50 μl 10% SDS, 50 μl ammonium persulphate and 10 μl TEMED). Finally, a sample comb (8 lane comb) was inserted and the gel left to polymerise for at least 45 minutes.
2. Sample preparation: A matrix metalloprotease (MMP) sample (10% solution of human acute wound fluid diluted in MMP proteolysis buffer (see below)) was diluted 1:1 with sample buffer (6.3 ml 0.5M Tris-HCl pH 6.8, 2.5 ml glycerol, 0.5 g SDS, 16.2 ml deionised water and bromophenol blue to colour).
3. Sample loading and electrophoresis: 20 μl of the MMP samples were loaded into 8 lanes of the gel. The MMP's were separated for 1 hour at 20 mA/100V per gel until the dye front was almost at the bottom of the gel. The gel apparatus was then dismantled and the gel removed.
4. Proteolysis: Washed gels for 30 minutes with 100 ml 2.5% Triton X-100. The procedure was repeated three times. The gels were cut into slices consisting of two lanes per slice. The gel slices were incubated in 20 ml proteolysis buffer (50 mM Tris-HCl pH 7.8, 50 mM CaCl2, 0.5M NaCl) containing the following treatments (each treatment was adjusted to pH 7.8) for 18 hours at 37° C.: (1) proteolysis buffer alone; (2) N-acetyl cysteine (44 mM); (3) N-acetyl cysteine (4.4 mM); (4) N-acetyl cysteine (0.44 mM).
5. […]
The area of the individual zones of clearance on the gels, which are due to proteinase activity, were accurately measured by the Optilab (RTM) system. […]

[2] = tested on: TNF-α induced CD 54, Intercellular Adhesion Molecule (ICAM-1) expression by Human Umbilical Vein Endothelial Cells (HUVEC); assay: TNF-α induced ICAM-1 expression by HUVEC (ELISA); type: cell-based; details: TNF-α 0.5 ng/ml
Description: The effects of NAC on the expression of the TNF-α induced CD 54, Intercellular Adhesion Molecule (ICAM-1) by Human Umbilical Vein Endothelial Cells (HUVEC) was assessed as follows.
DL-Buthionine sulphoximine (BSO) was used to pretreat the cells. BSO is an inhibitor of glutathione synthesis and therefore reduces the glutathione content of the HUVEC rendering them more susceptible to oxidative stress and mimicking the conditions implicated in chronic wounds. NAC was used as a treatment to inhibit the expression of ICAM-1 by interfering with the TNF-α mediated intracellular signalling.
HUVEC were seeded to wells of 96 well plates (5000 cells per well in 100 μl Endothelial Growth Medium (EGM)). The plates were allowed to grow until the cells reached 90% confluence. The medium was decanted from each plate and the following treatments (all volumes were 200 μl, performed in quadruplicate wells) where then applied to the HUVEC. […]
ICAM-1 expression, stimulated by inflammatory mediators such as tumour necrosis factor, can be detected on the surface of cells (endothelial cells, monocytes, T&B cells, keratinocytes, chondrocytes and epithelial cells) using ELISA techniques, as follows: […]
8. Stop the reaction when colour develops by the addition of 1M H2 SO4 (100 μl per well) and read the absorbance at 450 nm using a Dynatech (RTM) plate reader.

## CC(=O)N[C@@H](CS)C(=O)O [NAC, N-acetyl-3-mercaptoalanine]
[1]; 0.44 mM NAC
  inhibition of MMP activity: approximately 10%
[1]; 4.4 mM NAC solution
  inhibition of MMP activity: Approximately 70%
[1]; 44 mM NAC solution
  inhibition of MMP activity: substantially complete
[1]; NAC 0.44, 4.4, 44 mM, FIG. 2
  inhibition of MMP activity (concentration dependence): clear concentration-dependent inhibition
[2]; BSO (50 μM) pretreated HUVEC, NAC 1.1, 3.3, 10 mM, FIG. 1
  inhibition of ICAM-1 expression (concentration dependence): concentration-dependent inhibition
[2]; NAC 10, 3.3 and 1.1 mM, P<0.05, Students T-test, BSO pretreated HUVEC
  inhibition of ICAM-1 expression, all NAC concentrations: significant inhibition
